US20260295053A1, “COMPOUNDS FOR DEGRADATION AND INHIBITION OF KRAS (G12D) PROTEIN” (Shenzhen Ionova Life Science Co., Ltd., priority 2023, published 2026)

Molecular target: T1, KRAS (G12D) (Homo sapiens, UniProt P01116, G12D)
T1 construct: in-cell western with KRAS G12D antibody after 24 h
Assay: KRAS (G12D) cellular degradation assay in AsPC-1 cells
Format: cell-based
Conditions: 24 hours, antibody fluorescence (Odyssey CLX), DC50 half-maximal degradation concentration
Outline: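 Half-maximal degradation (DC50) and inhibition (IC50) concentrations are fitted from dose-response curves spanning […] to 1.5 nM final. KRAS G12D loss is measured by fluorescent antibody staining with β-actin reference after 24 h; growth is measured by ATP luminescence after a 6-day exposure.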

T1 sequence (P01116 1-188 isoform P01116-2 G12D): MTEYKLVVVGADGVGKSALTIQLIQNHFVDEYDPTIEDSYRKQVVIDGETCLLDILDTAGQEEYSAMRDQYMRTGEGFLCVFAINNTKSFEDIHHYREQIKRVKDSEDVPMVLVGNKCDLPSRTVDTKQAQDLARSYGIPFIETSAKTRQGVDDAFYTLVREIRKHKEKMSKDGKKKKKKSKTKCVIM

| SMILES | DC50 |
| --- | --- |
| CCn1nccc1-c1ccc([C@H](CO)NC(=O)[C@@H]2C[C@@H](O)CN2C(=O)[C@H](C(C)C)n2cc(-c3ccc(COc4c(-c5c(C)c(F)cc6[nH]ncc56)c(C5CC5)cc5c(N(C)C[C@@H]6CCCN6)nc(OC[C@H](C)OC)nc45)cc3)nn2)cc1 [Example 228, (2S,4R)-1-((2S)-2-(4-(4-(((6-cyclopropyl-7-(6-fluoro-5-methyl-1H-indazol-4-yl)-2-((S)-2-methoxypropoxy)-4-(methyl(((S)-pyrrolidin-2-yl)methyl)amino)quinazolin-8-yl)oxy)methyl)phenyl)-1H-1,2,3-triazol-1-yl)-3-methylbutanoyl)-N—((R)-1-(4-(1-ethyl-1H-pyrazol-5-yl)phenyl)-2-hydroxyethyl)-4-hydroxypyrrolidine-2-carboxamide] | < 10 nM |
| CO[C@@H](C)COc1nc(N2C[C@H]3CN[C@H](C3)C2)c2cc(C3CC3)c(-c3c(C)c(F)cc4[nH]ncc34)c(OCc3ccc(-c4cn([C@H](C(=O)N5C[C@H](O)C[C@H]5C(=O)N[C@@H](CO)c5ccc(-c6scnc6C)cc5)C(C)C)nn4)cc3)c2n1 [Example 223, (2S,4R)-1-((2S)-2-(4-(4-(((4-((1R,5R)-3,6-diazabicyclo[3.2.1]octan-3-yl)-6-cyclopropyl-7-(6-fluoro-5-methyl-1H-indazol-4-yl)-2-((S)-2-methoxypropoxy)quinazolin-8-yl)oxy)methyl)phenyl)-1H-1,2,3-triazol-1-yl)-3-methylbutanoyl)-4-hydroxy-N—((R)-2-hydroxy-1-(4-(4-methylthiazol-5-yl)phenyl)ethyl)pyrrolidine-2-carboxamide] | 10 to 100 nM |
| CCn1nccc1-c1ccc([C@H](CO)NC(=O)[C@@H]2C[C@@H](O)CN2C(=O)[C@H](C(C)C)n2cc(-c3ccc(COc4c(-c5c(C)c(F)cc6[nH]ncc56)c(C5CC5)cc5c(N6CCCC(C#N)CC6)nc(OC[C@H](C)OC)nc45)cc3)nn2)cc1 (stereo partly drawn) [Example 182, (2S,4R)-1-((2S)-2-(4-(4-(((4-(4-cyanoazepan-1-yl)-6-cyclopropyl-7-(6-fluoro-5-methyl-1H-indazol-4-yl)-2-((S)-2-methoxypropoxy)quinazolin-8-yl)oxy)methyl)phenyl)-1H-1,2,3-triazol-1-yl)-3-methylbutanoyl)-N—((R)-1-(4-(1-ethyl-1H-pyrazol-5-yl)phenyl)-2-hydroxyethyl)-4-hydroxypyrrolidine-2-carboxamide] | 10 to 100 nM |
| CCn1nccc1-c1ccc([C@H](CO)NC(=O)[C@@H]2C[C@@H](O)CN2C(=O)[C@H](C(C)C)n2cc(-c3ccc(COc4c(-c5c(C)c(F)cc6[nH]ncc56)c(C5CC5)cc5c(N6C[C@@H]7CN[C@@H](C7)C6)nc(OC[C@H](C)OC)nc45)cc3)nn2)cc1 [Example 229, (2S,4R)-1-((2S)-2-(4-(4-(((4-((1S,5S)-3,6-diazabicyclo[3.2.1]octan-3-yl)-6-cyclopropyl-7-(6-fluoro-5-methyl-1H-indazol-4-yl)-2-((S)-2-methoxypropoxy)quinazolin-8-yl)oxy)methyl)phenyl)-1H-1,2,3-triazol-1-yl)-3-methylbutanoyl)-N—((R)-1-(4-(1-ethyl-1H-pyrazol-5-yl)phenyl)-2-hydroxyethyl)-4-hydroxypyrrolidine-2-carboxamide] | 10 to 100 nM |
| CCn1nccc1-c1ccc([C@H](CO)NC(=O)[C@@H]2C[C@@H](O)CN2C(=O)[C@H](C(C)C)n2cc(-c3ccc(COc4c(-c5c(C)c(F)cc6[nH]ncc56)c(C5CC5)cc5c(N6C[C@@H]7C[C@H]6CN7)nc(N6CC(OC)C6)nc45)cc3)nn2)cc1 [Example 126, (2S,4R)-1-((2S)-2-(4-(4-(((4-((1S,4S)-2,5-diazabicyclo[2.2.1]heptan-2-yl)-6-cyclopropyl-7-(6-fluoro-5-methyl-1H-indazol-4-yl)-2-(3-methoxyazetidin-1-yl)quinazolin-8-yl)oxy)methyl)phenyl)-1H-1,2,3-triazol-1-yl)-3-methylbutanoyl)-N—((R)-1-(4-(1-ethyl-1H-pyrazol-5-yl)phenyl)-2-hydroxyethyl)-4-hydroxypyrrolidine-2-carboxamide] | 10 to 100 nM |
| CCn1nccc1-c1ccc([C@H](CO)NC(=O)[C@@H]2C[C@@H](O)CN2C(=O)[C@H](C(C)C)n2cc(-c3ccc(COc4c(-c5c(C)c(F)cc6[nH]ncc56)c(C5CC5)cc5c(N6CCC(C#N)CC6)nc(OC[C@H](C)OC)nc45)cc3)nn2)cc1 [Example 174, (2S,4R)-1-((2S)-2-(4-(4-(((4-(4-cyanopiperidin-1-yl)-6-cyclopropyl-7-(6-fluoro-5-methyl-1H-indazol-4-yl)-2-((S)-2-methoxypropoxy)quinazolin-8-yl)oxy)methyl)phenyl)-1H-1,2,3-triazol-1-yl)-3-methylbutanoyl)-N—((R)-1-(4-(1-ethyl-1H-pyrazol-5-yl)phenyl)-2-hydroxyethyl)-4-hydroxypyrrolidine-2-carboxamide] | 10 to 100 nM |
| CO[C@@H](C)COc1nc(N2C[C@@H]3C[C@H]2CN3)c2cc(C3CC3)c(-c3c(C)c(F)cc4[nH]ncc34)c(OCc3ccc(-c4cn([C@H](C(=O)N5C[C@H](O)C[C@H]5C(=O)N[C@H](C#Cc5cc(F)cc(F)c5)CO)C(C)C)nn4)cc3)c2n1 [Example 141, (2S,4R)-1-((2S)-2-(4-(4-(((4-((1S,4S)-2,5-diazabicyclo[2.2.1]heptan-2-yl)-6-cyclopropyl-7-(6-fluoro-5-methyl-1H-indazol-4-yl)-2-((S)-2-methoxypropoxy)quinazolin-8-yl)oxy)methyl)phenyl)-1H-1,2,3-triazol-1-yl)-3-methylbutanoyl)-N—((R)-4-(3,5-difluorophenyl)-1-hydroxybut-3-yn-2-yl)-4-hydroxypyrrolidine-2-carboxamide] | 10 to 100 nM |
| CCn1nccc1-c1ccc([C@H](CO)NC(=O)[C@@H]2C[C@@H](O)CN2C(=O)[C@H](C(C)C)n2cc(-c3ccc(COc4c(-c5c(C)c(F)cc6[nH]ncc56)c(C5CC5)cc5c(N6CCC[C@](C)(O)C6)nc(OC[C@H](C)OC)nc45)cc3)nn2)cc1 [Example 39, (2S,4R)-1-((2S)-2-(4-(4-(((6-cyclopropyl-7-(6-fluoro-5-methyl-1H-indazol-4-yl)-4-((S)-3-hydroxy-3-methylpiperidin-1-yl)-2-((S)-2-methoxypropoxy)quinazolin-8-yl)oxy)methyl)phenyl)-1H-1,2,3-triazol-1-yl)-3-methylbutanoyl)-N—((R)-1-(4-(1-ethyl-1H-pyrazol-5-yl)phenyl)-2-hydroxyethyl)-4-hydroxypyrrolidine-2-carboxamide] | 10 to 100 nM |

The remaining lines, values ahead:

| DC50 | SMILES |
| --- | --- |
| > 1000 nM | Cc1ncsc1-c1ccc([C@H](CO)NC(=O)[C@@H]2C[C@@H](O)CN2C(=O)[C@H](C(C)C)n2cc(-c3ccc(COc4c(-c5c(C)c(F)cc6[nH]ncc56)c(C5CC5)cc5c(N6C[C@H]7C[C@@H]6CN7)nc(OC6CCOCC6)nc45)cc3)nn2)cc1 (single isomer, unassigned) [Example 5B] |
| > 1000 nM | CO[C@@H](C)COc1nc(N2C[C@H]3C[C@@H]2CN3)c2cc(C3CC3)c(-c3c(C)c(F)cc4n[nH]cc34)c(OCc3ccc(-c4cn([C@H](C(=O)N5C[C@H](O)C[C@H]5C(=O)N[C@@H](CO)c5ccc(-c6c(C)noc6C)cc5)C(C)C)nn4)cc3)c2n1 (single isomer, unassigned) [Example 6B] |
| > 1000 nM | CCn1nccc1-c1ccc(CNC(=O)[C@@H]2C[C@@H](O)CN2C(=O)[C@H](C(C)C)n2cc(-c3ccc(COc4c(-c5c(C)c(F)cc6[nH]ncc56)c(C5CC5)cc5c(N6C[C@H]7C[C@@H]6CN7)nc(OC[C@H](C)OC)nc45)cc3)nn2)cc1 (single isomer, unassigned) [Example 7B] |
